Test results taken from US10968210B2, “Diamino-alkylamino-linked arylsulfonamide compounds with selective activity in voltage-gated sodium channels” (Merck Sharp & Dohme Corp., priority 2016, dated 2021).

Experiments:
[1] = target: T1, human Nav 1.7 channels stably expressed in HEK 293 cells (Homo sapiens, UniProt Q15858); assay: IonWorks Quattro automated patch-clamp, inactivated state block of Nav 1.7; type: cell-based; conditions: double-pulse protocol, HEK 293 cells held at -100 mV, read-out: potency for the Nav 1.7 sodium ion channel (IC50, IonWorks)
T1 construct: expressed in transfected cells; host or cells: HEK 293
T1 sequence (Q15858 whole entry): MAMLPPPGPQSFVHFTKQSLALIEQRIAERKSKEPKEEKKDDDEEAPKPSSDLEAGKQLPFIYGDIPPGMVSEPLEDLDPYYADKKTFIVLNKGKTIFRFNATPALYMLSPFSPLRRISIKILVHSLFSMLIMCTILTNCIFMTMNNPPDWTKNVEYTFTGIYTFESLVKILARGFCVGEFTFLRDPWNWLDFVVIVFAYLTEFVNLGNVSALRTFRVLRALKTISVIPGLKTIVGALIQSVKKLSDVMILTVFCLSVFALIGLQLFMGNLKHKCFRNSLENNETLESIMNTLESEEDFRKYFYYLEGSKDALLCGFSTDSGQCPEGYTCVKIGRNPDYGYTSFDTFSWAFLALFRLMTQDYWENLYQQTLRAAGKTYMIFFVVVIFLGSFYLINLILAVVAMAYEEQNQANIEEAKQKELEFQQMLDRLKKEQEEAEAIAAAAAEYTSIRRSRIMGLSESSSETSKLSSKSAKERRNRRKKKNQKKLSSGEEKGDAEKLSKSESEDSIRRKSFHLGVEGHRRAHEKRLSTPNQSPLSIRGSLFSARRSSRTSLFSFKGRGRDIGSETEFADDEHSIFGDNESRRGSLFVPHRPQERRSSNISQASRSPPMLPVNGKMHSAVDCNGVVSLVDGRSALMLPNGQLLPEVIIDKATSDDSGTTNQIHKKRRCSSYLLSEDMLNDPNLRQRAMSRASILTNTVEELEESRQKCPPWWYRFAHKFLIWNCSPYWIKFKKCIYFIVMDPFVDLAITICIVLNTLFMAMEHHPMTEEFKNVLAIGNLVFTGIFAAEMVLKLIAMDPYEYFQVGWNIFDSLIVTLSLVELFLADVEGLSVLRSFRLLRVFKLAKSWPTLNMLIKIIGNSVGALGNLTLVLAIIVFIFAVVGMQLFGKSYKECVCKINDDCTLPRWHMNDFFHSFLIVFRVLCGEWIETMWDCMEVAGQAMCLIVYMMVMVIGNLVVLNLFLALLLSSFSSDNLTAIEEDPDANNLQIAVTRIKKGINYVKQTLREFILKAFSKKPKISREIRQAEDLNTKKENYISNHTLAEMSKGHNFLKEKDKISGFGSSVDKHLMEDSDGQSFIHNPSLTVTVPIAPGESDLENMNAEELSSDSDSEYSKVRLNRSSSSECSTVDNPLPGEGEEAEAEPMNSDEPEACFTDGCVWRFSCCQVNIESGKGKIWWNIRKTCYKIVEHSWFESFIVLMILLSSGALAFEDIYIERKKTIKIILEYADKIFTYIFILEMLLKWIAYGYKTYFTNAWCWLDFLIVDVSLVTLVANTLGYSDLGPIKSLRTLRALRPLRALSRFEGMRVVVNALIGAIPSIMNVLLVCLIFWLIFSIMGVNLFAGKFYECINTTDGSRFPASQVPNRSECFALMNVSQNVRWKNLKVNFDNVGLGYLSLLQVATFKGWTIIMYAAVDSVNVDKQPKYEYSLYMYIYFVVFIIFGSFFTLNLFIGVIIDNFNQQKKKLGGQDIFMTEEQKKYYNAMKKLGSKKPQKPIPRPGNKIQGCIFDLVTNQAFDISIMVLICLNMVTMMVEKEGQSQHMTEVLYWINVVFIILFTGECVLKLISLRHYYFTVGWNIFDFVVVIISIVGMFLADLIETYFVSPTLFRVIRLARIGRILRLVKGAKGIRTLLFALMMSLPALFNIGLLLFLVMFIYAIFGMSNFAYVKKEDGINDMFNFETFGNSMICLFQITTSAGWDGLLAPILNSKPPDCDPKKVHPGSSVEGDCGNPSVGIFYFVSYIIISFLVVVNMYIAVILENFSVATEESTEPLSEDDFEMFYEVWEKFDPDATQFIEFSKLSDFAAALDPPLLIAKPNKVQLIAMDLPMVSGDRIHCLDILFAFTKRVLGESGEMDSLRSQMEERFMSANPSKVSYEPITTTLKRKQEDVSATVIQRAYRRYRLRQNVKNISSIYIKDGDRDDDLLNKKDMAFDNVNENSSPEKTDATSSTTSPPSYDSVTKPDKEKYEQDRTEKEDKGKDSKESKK
Description: (§1) IonWorks® Experimental Procedure
(§2) Compounds were tested on human Nav 1.7 and Nav 1.5 channels stably expressed in HEK 293 cells. Sodium current measurements on IonWorks Quattro: An automated patch-clamp assay on the IonWorks Quattro platform (Molecular Devices) was used to measure state-dependent inhibition of human Nav 1.7 and Nav 1.5 channels. Cells were sealed on a planar substrate using the Population Patch Plate (PPC) technology. Electrical access was obtained using both nystatin and amphotericin. A double-pulse protocol was used for the determination of IC50 values for inactivated state block. Nav 1.7 and Nav 1.5 expressing cells were voltage clamped at −100 mV and −110 mV, respectively. A depolarizing prepulse to −10 mV (Nav 1.7) or −30 mV (Nav 1.5) for 1000 ms followed by a 10 ms repolarization to ˜100 mV (Nav1.7) or −110 mV (Nav 1.5) was given to generate fractional channel inactivation of ˜50%, followed by a 10 ms test pulse to −10 mV (Nav 1.7) or −30 mV (Nav 1.5) to measure peak current in control conditions and after compound addition. The following recording solutions were used (mM). External: 150 NaCl, 2 CaCl2, 5 KCl, 1 Mg Cl2, 10 HEPES, 12 Dextrose; internal: 120 CsF, 30 CsCl, 10 EGTA, 5 HEPES, 5 NaF, 2 MgCl2.
(§3) For all electrophysiology experiments, offline analysis was used to determine percent inhibition as a function of drug concentration. IC50 values were determined by fitting to the Hill equation.
(§4) The various compounds in Examples 1 through 4 and Tables 1 through 3 exemplified above were assayed for activity and selectivity using the foregoing IonWorks® technique. The results are reported in the following paragraph in a format expressing the identification of the compound with reference Example and compound (e.g. Ex 1-9 is Example 1, compound 9) followed by the observed potency in nM and the ratio of Nav1.7 potency: Nav1.5 potency as described here. Thus, Ex1-9: 1.7=65/ratio=641 identifies compound Example 1, compound 9 as having 65 nM potency for the Nav 1.7 sodium ion channel (as measured by IonWorks®) and a ratio of 641 Nav 1.7: Nav 1.5 potency, determined by IonWorks® measurement.

[2] = target: T2, human Nav 1.5 channels stably expressed in HEK 293 cells (Homo sapiens, UniProt Q14524); assay: IonWorks Quattro automated patch-clamp, inactivated state block of Nav 1.5 (reported as ratio to Nav 1.7 potency); type: cell-based; conditions: selectivity for Nav 1.7 over Nav 1.5, both by IonWorks
T2 construct: expressed in transfected cells; host or cells: HEK 293
T2 sequence (Q14524 whole entry): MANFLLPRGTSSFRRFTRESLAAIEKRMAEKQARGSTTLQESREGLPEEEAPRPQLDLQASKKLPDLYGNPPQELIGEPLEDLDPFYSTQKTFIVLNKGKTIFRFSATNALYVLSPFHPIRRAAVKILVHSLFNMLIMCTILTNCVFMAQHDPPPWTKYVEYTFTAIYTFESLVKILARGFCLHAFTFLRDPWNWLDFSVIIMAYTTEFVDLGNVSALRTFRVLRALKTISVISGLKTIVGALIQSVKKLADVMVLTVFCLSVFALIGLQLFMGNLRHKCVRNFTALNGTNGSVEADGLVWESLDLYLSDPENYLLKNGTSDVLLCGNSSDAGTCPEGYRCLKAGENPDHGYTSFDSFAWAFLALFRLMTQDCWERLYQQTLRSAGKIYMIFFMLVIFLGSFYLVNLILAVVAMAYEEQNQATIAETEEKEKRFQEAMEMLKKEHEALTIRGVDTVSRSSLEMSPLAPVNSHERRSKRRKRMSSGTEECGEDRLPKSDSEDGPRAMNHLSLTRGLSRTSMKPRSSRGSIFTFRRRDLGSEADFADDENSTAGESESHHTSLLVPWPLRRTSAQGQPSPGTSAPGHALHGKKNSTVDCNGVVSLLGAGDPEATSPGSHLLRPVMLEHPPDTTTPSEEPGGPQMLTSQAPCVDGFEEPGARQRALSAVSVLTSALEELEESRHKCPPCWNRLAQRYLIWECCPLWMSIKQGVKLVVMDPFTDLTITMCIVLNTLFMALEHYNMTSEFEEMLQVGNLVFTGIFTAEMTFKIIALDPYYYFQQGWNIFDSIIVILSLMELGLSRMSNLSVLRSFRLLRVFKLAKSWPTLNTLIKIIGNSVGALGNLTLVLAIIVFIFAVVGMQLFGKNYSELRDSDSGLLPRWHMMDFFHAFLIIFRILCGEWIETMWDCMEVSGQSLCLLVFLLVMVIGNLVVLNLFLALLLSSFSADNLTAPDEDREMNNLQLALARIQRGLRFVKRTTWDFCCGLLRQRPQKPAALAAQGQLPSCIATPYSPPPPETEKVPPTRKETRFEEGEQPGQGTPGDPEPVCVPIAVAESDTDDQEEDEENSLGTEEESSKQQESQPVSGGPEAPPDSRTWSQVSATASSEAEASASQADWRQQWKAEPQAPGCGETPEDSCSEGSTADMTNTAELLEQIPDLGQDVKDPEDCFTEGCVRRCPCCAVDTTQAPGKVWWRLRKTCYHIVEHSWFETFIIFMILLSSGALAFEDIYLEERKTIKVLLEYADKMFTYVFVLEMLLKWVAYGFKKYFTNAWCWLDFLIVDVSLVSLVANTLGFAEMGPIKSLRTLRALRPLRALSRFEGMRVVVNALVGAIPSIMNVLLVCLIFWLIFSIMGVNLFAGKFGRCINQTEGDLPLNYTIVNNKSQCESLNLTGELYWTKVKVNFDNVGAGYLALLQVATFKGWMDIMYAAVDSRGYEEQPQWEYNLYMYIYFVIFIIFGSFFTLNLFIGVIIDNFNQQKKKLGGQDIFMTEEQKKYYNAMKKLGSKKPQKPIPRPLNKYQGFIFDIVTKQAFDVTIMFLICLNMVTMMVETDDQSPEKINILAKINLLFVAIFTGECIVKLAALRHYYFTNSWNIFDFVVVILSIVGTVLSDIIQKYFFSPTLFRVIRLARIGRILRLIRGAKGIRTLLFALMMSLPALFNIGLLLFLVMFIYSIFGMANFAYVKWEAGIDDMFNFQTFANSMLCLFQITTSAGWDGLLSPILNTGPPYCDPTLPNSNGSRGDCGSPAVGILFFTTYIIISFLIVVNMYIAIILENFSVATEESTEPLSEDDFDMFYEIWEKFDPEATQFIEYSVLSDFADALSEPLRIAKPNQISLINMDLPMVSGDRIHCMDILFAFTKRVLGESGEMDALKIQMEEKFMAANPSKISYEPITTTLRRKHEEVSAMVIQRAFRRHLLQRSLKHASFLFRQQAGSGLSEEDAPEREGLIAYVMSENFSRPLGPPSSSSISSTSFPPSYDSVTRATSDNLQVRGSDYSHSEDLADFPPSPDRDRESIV
Description: as §1, §2, §3, §4

Row | Compound | IC50 [1] [nM] | ratio of Nav 1.7 : Nav 1.5 potency (IonWorks) [2]
1 | COc1ccc(CC2(CNCCCCNc3cc(F)c(S(=O)(=O)Nc4nccs4)cc3Cl)CCCN2)cc1 (single isomer, unassigned) [Ex 1-16 Enantiomer A, (S or R)-5-chloro-2-fluoro-4-{[4-({[2-(4-methoxybenzyl)pyrrolidin-2-yl]methyl}amino)butyl]amino}-N-1,3-thiazol-2-ylbenzenesulfonamide] | 240 | 50
2 | COc1ccc(CC2(CNCCCCNc3cc(F)c(S(=O)(=O)Nc4nccs4)cc3Cl)CCCN2)cc1 (single isomer, unassigned) [Ex 1-16 Enantiomer B, (R or S)-5-chloro-2-fluoro-4-{[4-({[2-(4-methoxybenzyl)pyrrolidin-2-yl]methyl}amino)butyl]amino}-N-1,3-thiazol-2-ylbenzenesulfonamide] | 130 | 185
3 | O=S(=O)(Nc1nccs1)c1cc(Cl)c(NCCCCNCC2Cc3ccccc3CN2)cc1F (single isomer, unassigned) [Ex 1-18, (R or S)-5-chloro-2-fluoro-4-({4-[(1,2,3,4-tetrahydroisoquinolin-3-ylmethyl)amino]butyl}amino)-N-1,3-thiazol-2-ylbenzenesulfonamide] | 7.9 | > 4177
4 | O=S(=O)(Nc1nccs1)c1cc(Cl)c(NCC2CCCC(NCC3CCCN3)C2)cc1F (single isomer, unassigned) [Ex 6-7 Enantiomer B, 5-chloro-2-fluoro-4-((((1S,3R or 1R,3S)-3-(((S)-pyrrolidin-2-ylmethyl)amino)cyclohexyl)methyl)amino)-N-(thiazol-2-yl)benzenesulfonamide] | 35 | > 940
5 | NCC1CCN1CCCCNc1cc(F)c(S(=O)(=O)Nc2nccs2)cc1Cl (single isomer, unassigned) [Ex 16-53, (S or R)-4-({4-[2-(aminomethyl)-azetidin-1-yl]butyl}amino)-5-chloro-2-fluoro-N-1,3-thiazol-2-ylbenzene-sulfonamide] | 42 | > 786
6 | O=S(=O)(Nc1nccs1)c1cc(Cl)c(NCCCCNCCNCc2ccccc2)cc1F [Ex 1-3, 4-[(4-{[2-(benzylamino)ethyl]amino}butyl)amino]-5-chloro-2-fluoro-N-1,3-thiazol-2-ylbenzenesulfonamide] | 7 | > 4700
7 | O=S(=O)(Nc1nccs1)c1cc(Cl)c(NCCCCN2CCC3(CCCN3)CC2)cc1F [Ex 1-14, 5-chloro-4-{[4-(1,8-diazaspiro[4.5]dec-8-yl)butyl]amino}-2-fluoro-N-1,3-thiazol-2-ylbenzenesulfonamide] | 38 | > 870
8 | O=S(=O)(Nc1nccs1)c1cc(Cl)c(NCCCCN[C@H]2[C@@H]3CC[C@H]2NC3)cc1F [Ex 1-17, 4-({4-[(1R,4R,7S)-2-azabicyclo[2.2.1]hept-7-ylamino]butyl}amino)-5-chloro-2-fluoro-N-1,3-thiazol-2-ylbenzenesulfonamide] | 60 | > 550
9 | N[C@H]1[C@@H]2CC[C@H]1N(CCCCNc1cc(F)c(S(=O)(=O)Nc3nccs3)cc1Cl)C2 [Ex 1-20, 4-({4-[(1R,4R,7S)-7-amino-2-azabicyclo[2.2.1]hept-2-yl]butyl}amino)-5-chloro-2-fluoro-N-1,3-thiazol-2-ylbenzenesulfonamide] | 56 | > 590
10 | O=S(=O)(Nc1nccs1)c1cc(Cl)c(NCCCCN2C[C@H]3CNC[C@H]3C2)cc1F [Ex 1-22, 5-chloro-2-fluoro-4-({4-[(3aR,6aS)-hexahydropyrrolo[3,4-c]pyrrol-2(1H)-yl]butyl}amino)-N-1,3-thiazol-2-ylbenzenesulfonamide] | 26 | > 1270
11 | O=S(=O)(Nc1nccs1)c1cc(Cl)c(NCCCCN2C[C@H]3CNCC[C@H]3C2)cc1F [Ex 1-23, 5-chloro-2-fluoro-4-({4-[(3aR,7aR)-octahydro-2H-pyrrolo[3,4-c]pyridin-2-yl]butyl}amino)-N-1,3-thiazol-2-ylbenzenesulfonamide] | 43 | > 770
12 | O=S(=O)(Nc1nccs1)c1cc(Cl)c(NCCCCNC2C[C@@H]3C[C@H]2CN3)cc1F (stereo partly drawn) [Ex 1-24, 4-({4-[(1S,4S)-2-azabicyclo[2.2.1]hept-5-ylamino]butyl}amino)-5-chloro-2-fluoro-N-1,3-thiazol-2-ylbenzenesulfonamide] | 17 | > 1940
13 | O=S(=O)(Nc1nccs1)c1cc(Cl)c(NCCCCN[C@@H]2[C@H]3CC[C@@H]2NC3)cc1F [Ex 1-25, 4-({4-[(1S,4S,7R)-2-azabicyclo[2.2.1]hept-7-ylamino]butyl}amino)-5-chloro-2-fluoro-N-1,3-thiazol-2-ylbenzenesulfonamide] | 21 | > 1590
14 | O=S(=O)(Nc1nccs1)c1cc(Cl)c(NCC(F)(F)CCNC[C@H]2CCCN2)cc1F [Ex 11-12, 5-chloro-4-[(2,2-difluoro-4-{[(2R)-pyrrolidin-2-ylmethyl]amino}butyl)amino]-2-fluoro-N-1,3-thiazol-2-ylbenzenesulfonamide] | 49 | –
15 | NC[C@H]1CCN1CCCCNc1cc(F)c(S(=O)(=O)Nc2ncc(F)s2)cc1Cl [Ex 16-10, 4-({4-[(2R)-2-(aminomethyl)azetidin-1-yl]-butyl}amino)-5-chloro-2-fluoro-N-(5-fluoro-1,3-thiazol-2-yl)-benzene-sulfonamide] | 19 | –
16 | O=S(=O)(Nc1ncns1)c1cc(Cl)c(NCCCCN2C[C@H]3CCCN[C@H]3C2)cc1F [Ex 16-31, 5-chloro-2-fluoro-4-({4-[(4aR,7aR)-octahydro-6H-pyrrolo[3,4-b]pyridin-6-yl]-butyl}amino)-N-1,2,4-thiadiazol-5-ylbenzene-sulfonamide] | 12 | –
17 | NCC1CN(CCCCNc2cc(F)c(S(=O)(=O)Nc3ncns3)cc2Br)C1 [Ex 16-37, 4-((4-(3-(aminomethyl)azetidin-1-yl)butyl)amino)-5-bromo-2-fluoro-N-(1,2,4-thiadiazol-5-yl)benzenesulfonamide] | 10 | –
18 | NC1CN(CCCCNc2cc(F)c(S(=O)(=O)Nc3ncns3)cc2Cl)C1 [Ex 16-38, 4-{[4-(3-aminoazetidin-1-yl)-butyl]amino}-5-chloro-2-fluoro-N-1,2,4-thiadiazol-5-yl-benzenesulfonamide] | 30 | –
19 | N#Cc1cc(S(=O)(=O)Nc2ncc(F)s2)c(F)cc1NCCCCN[C@@H]1CCNC1 [Ex 16-40, 5-cyano-2-fluoro-N-(5-fluoro-1,3-thiazol-2-yl)-4-({4-[(3R)-pyrrolidin-3-yl-amino]butyl}amino)benzene-sulfonamide] | 29 | –
20 | O=S(=O)(Nc1nccs1)c1cc(Cl)c(NCCCCNC2C[C@@H]3CN[C@H]2C3)cc1F (stereo partly drawn) [Ex 16-42, 4-({4-[(1S,4R)-2-azabicyclo[2.2.1]hept-6-yl-amino]butyl}amino)-5-chloro-2-fluoro-N-1,3-thiazol-2-ylbenzene-sulfonamide] | 44 | –
21 | Cc1cc(S(=O)(=O)Nc2ncc(F)s2)c(F)cc1NCCCCN[C@@H]1CCNC1 [Ex 16-43, 2-fluoro-N-(5-fluoro-1,3-thiazol-2-yl)-5-methyl-4-({4-[(3R)-pyrrolidin-3-ylamino]-butyl}amino)benzene-sulfonamide] | 11 | –
22 | O=S(=O)(Nc1ncc(F)s1)c1cc(Br)c(NCCCCN2C[C@H]3CCCN[C@H]3C2)cc1F [Ex 16-44, 5-bromo-2-fluoro-N-(5-fluoro-1,3-thiazol-2-yl)-4-({4-[(4aR,7aR)-octahydro-6H-pyrrolo[3,4-b]pyridin-6-yl]butyl}amino)benzene-sulfonamide] | 12 | –
23 | N#Cc1cc(S(=O)(=O)Nc2ncns2)c(F)cc1NCCCCN[C@@H]1CCNC1 [Ex 16-45, 5-cyano-2-fluoro-4-({4-[(3R)-pyrrolidin-3-yl-amino]butyl}amino)-N-1,2,4-thiadiazol-5-ylbenzene-sulfonamide] | 16 | –
24 | CN[C@@H]1CCN(CCCCNc2cc(F)c(S(=O)(=O)Nc3ncc(F)s3)cc2Cl)C1 [Ex 16-54, 5-chloro-2-fluoro-N-(5-fluoro-1,3-thiazol-2-yl)-4-({4-[(3R)-3-(methylamino)-pyrrolidin-1-yl]butyl}-amino)-benzenesulfonamide] | 13 | –
